In US9751875B2, “Quinine compounds, and optical isomers, preparation method and medical use thereof” (BEIJING FSWELCOME TECHNOLOGY DEVELOPMENT CO., LTD., priority 2013, dated 2017):
Like-named read-outs stand apart in the source and are kept apart here.

Legend:
[1] = test system: tracheal smooth muscle from guinea pigs (contraction induced by 3 × 10^−6 mol/L of CCh); experiment: Antagonism in vitro of contraction of isolated tracheal smooth muscle from guinea pigs induced by carbachol (CCh); type: cell-based, guinea pig
[2] = test system: tracheal smooth muscle from guinea pigs (contraction induced by 3 × 10^−6 mol/L of CCh); experiment: as above; type: cell-based, guinea pig; settings: cumulative dosing
From the text: Preparation of the Isolated Tracheal Smooth Muscle Specimen from a Guinea Pig:
After a guinea pig was narcotized with urethane, the trachea between the throat and carina of the guinea pig was taken out rapidly, and placed in the Krebs-Henseleit (K-H) solution (composition (g/L): NaCl 6.92, KCl 0.35, CaCl2 0.28, KH2PO4 0.16, MgSO4.7H2O 0.4568, NaHCO3 2.1, Glucose 2.0) with a mixture gas of 5% CO2 and 95% O2 purged. After loose connective tissues and fats around the trachea were separated, the trachea was cut into trachea pieces having a width of about 3 mm and a length of 20 mm by a surgical scissor, with both ends of the trachea piece ligated with 4˜0 silk suture, and then placed into a thermostatic bath containing 5 ml of K—H solution (pH 7.4) at 37° C., with the mixture gas of 5% CO2 and 95% O2 continuously purged. A muscle tension transducer was connected to the upper end so as to apply 1.0 g of resting tension to the specimen, the change of the tension was recorded, the culture solution was replaced every 20 min, and the test was started after being balanced for 60 min.
Administration method: After the trachea piece was stabilized, 3×10^−6 mol/L of CCh was added into a bath, and after the contractile tension of the trachea piece reached a peak level, the example compounds, ipratropium bromide and tiotropium bromide were added into a Magnus bath by a cumulative dosing regimen with a dosage of 10^−9˜10^−5 mol, respectively, and the diastolic condition of the trachea piece was observed: if no response occurred (below the threshold concentration), a next dosage was continued to be added in sequence; if response occurred, after it reached a diastolic plateau, a next dosage was further added. The above operation was repeated until the contractile curve reached the minimum value. Finally, 10^−6 mol/L of isoprenaline was added so that the maximum relaxation would be reached and the curve was recorded.
Statistical approach: The result was expressed as mean ±standard deviation, and counted by Sigma Stat statistical package. The data was analyzed by using variance analysis, the comparison among means of a plurality of specimen was performed by using Student-Newman-Keuls(SNK) test; statistical significant level α=0.05 (bilateral).
Compounds shown in Table 5 were further prepared according to the present invention, and their IC50 […] of resistance to the contraction of tracheal smooth muscle from guinea pigs induced by a concentration of 3×10^−6 mol/L of CCh was determined.

[3] = test system: m1, m2 and m3 subtypes of M receptor; experiment: Competitive [3H]-QNB binding on membranes of CHO cells transfected with m1, m2, m3; selectivity on subtypes of M receptor; settings: ratio of Ki, n = 6
[4] = test system: bronchus in guinea pigs (contractile response induced by Mch); experiment: Antagonism of contractile response of bronchus in guinea pigs induced by methacholine (Mch); airway resistance and pulmonary dynamic compliance; type: in vivo, guinea pig; settings: Mch 10 μg/kg iv after 30 min; for Cdyn(ml/cm H2O) / Raw (cm H2O/ml/s): Mean ± S.E.M
From the text: Determination of tidal volume, airway flow rate, and transpulmonary pressure: 1.5 g/kg of urethane was intraperitoneally injected to narcotize the guinea pig. The guinea pig was fixed supinely and treated with tracheal intubation, and the external jugular vein was separated and an indwelling needle was inserted; the guinea pig was enclosed into a body plethysmograph, a blunt needle for intubation into thoracic cavity was inserted between ribs 4˜5 of the prothorax of the guinea pig, and the intrathoracic pressure could be measured (with a negative value of a water column of a water manometer and a fluctuation with the breath of the guinea pig as marks). After stabilization, the values of the tidal volume, airway flow rate and transpulmonary pressure of the guinea pig prior to administration of Mch were recorded by a MedLab biological signal collection and processing system as base values. 10 μg/kg body weight of Mch was intravenously injected. The changes of the airway flow rate, tidal volume and transpulmonary pressure of the guinea pig within 5 minutes were observed. Calculation of Raw and Cdyn: the changes of the increased percentage of Raw value and the decreased percentage of Cdyn after […] of Mch were calculated.
Calculation formulas of Raw and Cdyn were respectively: […]
Dose-effect relationship: For each of the example compounds, 27 guinea pigs were randomly divided into […]: a solvent control group with […], a group with 1 μg/kg of the example compounds 4, 10, 14, and 26, a group with 3 μg/kg of the example compounds 4, 10, 14, and 26 and a group with 10 μg/kg of the example compounds 4, 10, 14, and 26; after 30 min from the dropping of the above concentration of drugs in the airway, 10 μg/kg body weight of Mch was intravenously injected for excitation, and airway resistance (Raw) and pulmonary dynamic compliance (Cdyn) within 5 min were determined. […]

[5] = read-out: IC50 (μM), antagonism in vitro against the contraction of the tracheal smooth muscle induced by CCh, 3 × 10^−6 mol/L of CCh

| Structure (SMILES) | Onset time [1] [min] | Time for eliminating inhibition effect (min) [1] | IC50 [2, 5] [µM] | Selectivity m1/m2, Mx/My = Ki(y)/Ki(x) [3] | Selectivity m1/m3, Mx/My = Ki(y)/Ki(x) [3] | Selectivity m2/m3, Mx/My = Ki(y)/Ki(x) [3] | inhibition ratio against the decrease of pulmonary dynamic compliance ([4]; 1 μg/kg dropped in the airway) [%] | inhibition ratio against the increase of airway resistance ([4]; 1 μg/kg dropped in the airway) [%] | Cdyn(ml/cm H2O) ([4]; 1 μg/kg dropped in the airway) | Raw (cm H2O/ml/s) ([4]; 1 μg/kg dropped in the airway) | inhibition ratio against the decrease of pulmonary dynamic compliance ([4]; 3 μg/kg dropped in the airway) [%] | inhibition ratio against the increase of airway resistance ([4]; 3 μg/kg dropped in the airway) [%] | Cdyn(ml/cm H2O) ([4]; 3 μg/kg dropped in the airway) | Raw (cm H2O/ml/s) ([4]; 3 μg/kg dropped in the airway) | inhibition ratio against the decrease of pulmonary dynamic compliance ([4]; 10 μg/kg dropped in the airway) [%] | inhibition ratio against the increase of airway resistance ([4]; 10 μg/kg dropped in the airway) [%] | Cdyn(ml/cm H2O) ([4]; 10 μg/kg dropped in the airway) | Raw (cm H2O/ml/s) ([4]; 10 μg/kg dropped in the airway) | IC50 ([2]; Cavia porcellus, read-out: IC50 (μM), antagonism in vitro against the contraction of the tracheal smooth muscle induced by CCh, 3 × 10^−6 mol/L of CCh) [µM] |
| --- | --- | --- | --- | --- | --- | --- | --- | --- | --- | --- | --- | --- | --- | --- | --- | --- | --- | --- | --- |
| OC(CO[C@H]1C[N+]2(CCCOc3ccccc3)CCC1CC2)(c1ccccc1)C1CCCC1.[Br-] (stereo partly drawn) [Example 1, (2R,3S)-3-[(2-cyclopentyl-2-hydroxyl-2-phenyl)ethoxyl]-1-(3-phenoxypropyl)-1-azabicyclo[2,2,2]octane bromide] | 6.89 | more than 300 min | 0.767 | 34.13 | 0.358 | 0.0105 | – | – | – | – | – | – | – | – | – | – | – | – | – |
| OC(CO[C@@H]1C[N+]2(CCCOc3ccccc3)CCC1CC2)(c1ccccc1)C1CCCC1.[Br-] (stereo partly drawn) [Example 4, (2R,3R)-3-[(2-cyclopentyl-2-hydroxyl-2-phenyl)ethoxyl]-1-(3-phenoxypropyl)-1-azabicyclo[2,2,2]octane bromide] | 6.37 | more than 300 min | 0.0278 | 30.2 | 0.332 | 0.011 | 11.2 | 64.2 | 0.105 ± 0.012 | 0.733 ± 0.088 | 46.6 | 86.1 | 0.137 ± 0.015 | 0.552 ± 0.060 | 50.0 | 90.8 | 0.196 ± 0.017 | 0.513 ± 0.071 | – |
| C[N+]1(C)CCC(OC(=O)C(c2ccccc2)c2ccccc2)CC1.[I-] [Example 4-DAMP, 4-DAMP, reference compound] | – | – | – | 1.66 | 0.095 | 0.058 | – | – | – | – | – | – | – | – | – | – | – | – | – |
| O[C@@](COC1C[N+]2(CCCOc3ccccc3)CCC1CC2)(c1ccccc1)C1CCCCC1.[Br-] (stereo partly drawn) [Example 10, (2R,3R)-3-[(2-cyclohexyl-2-hydroxyl-2-phenyl)ethoxyl]-1-(3-phenoxypropyl)-1-azabicyclo[2,2,2]octane bromide] | 6.24 | more than 300 min | – | – | – | – | 10.9 | 63.7 | 0.098 ± 0.009 | 0.745 ± 0.089 | 45.9 | 84.5 | 0.135 ± 0.007 | 0.563 ± 0.057 | 49.8 | 91.3 | 0.189 ± 0.015 | 0.531 ± 0.092 | 0.0227 |
| OC(CO[C@H]1C[N+]2(CCCOc3ccccc3)CCC1CC2)(c1ccccc1)C1CCC1.[Br-] (stereo partly drawn) [Example 14, (2S,3S)-3-[(2-cyclobutyl-2-hydroxyl-2-phenyl)ethoxyl]-1-(3-phenoxypropyl)-1-azabicyclo[2,2,2]octane bromide] | 6.34 | more than 300 min | 4.87 | 25.6 | 0.205 | 0.008 | 11.0 | 63.5 | 0.101 ± 0.010 | 0.719 ± 0.082 | 46.1 | 85.4 | 0.141 ± 0.014 | 0.560 ± 0.062 | 49.5 | 90.5 | 0.207 ± 0.018 | 0.504 ± 0.073 | – |
